In one experiment the test system is perfused rat islets. Nature of the experiment: Insulin secretion by perfused rat islets. Type of experiment: cell-based. Particulars: 50 nM peptide, 8 mM glucose. The protocol:
Sprague Dawley rats (275-320 g) were used as the source of donor islets. Briefly, the pancreas was filled with 10 ml of cold reconstituted Liberase RI (Boehringer Manheim), harvested and incubated with additional 5 ml enzyme solution in water bath for 30 minutes. Tissue suspension was washed twice with cold 10% FBS/Hanks buffer (Gibco), resuspended in 8 ml 25% ficoll (Sigma) and then layered with 5 ml each of 23%, 20% and 11% ficoll. The islets in the 20% layer after centrifugation were removed, washed twice with cold 10% FBS/Hank buffer and resuspended in 10% FBS/RPMI 1640 media (Sigma).
Insulin secretion of perfused rat islets mediated by some peptides of the invention was measured as follows. The bi-phasic responses of insulin release stimulated by these polypeptides were tested by islet perfusion. Fifty islets were loaded in the perifusion chamber and perifused with HEPES-KRB containing 3 mM glucose at 37° C. After 60 min, islets were exposed to buffer containing 8 mM glucose with or without peptide (50 nM) and perifused for another 30 min. Fractions of perifusate were collected at 1 or 5 minute intervals for insulin determination. Insulin was measured using an ELISA kit (Alpco Diagnostics, Windham, N.H.).

The target in experiment [1] is T1, GLP-1 receptor (Rattus norvegicus, UniProt P32301).
T1 construct: endogenous in cells; host or cells: RINm5F cells
T1 sequence (P32301 22-463): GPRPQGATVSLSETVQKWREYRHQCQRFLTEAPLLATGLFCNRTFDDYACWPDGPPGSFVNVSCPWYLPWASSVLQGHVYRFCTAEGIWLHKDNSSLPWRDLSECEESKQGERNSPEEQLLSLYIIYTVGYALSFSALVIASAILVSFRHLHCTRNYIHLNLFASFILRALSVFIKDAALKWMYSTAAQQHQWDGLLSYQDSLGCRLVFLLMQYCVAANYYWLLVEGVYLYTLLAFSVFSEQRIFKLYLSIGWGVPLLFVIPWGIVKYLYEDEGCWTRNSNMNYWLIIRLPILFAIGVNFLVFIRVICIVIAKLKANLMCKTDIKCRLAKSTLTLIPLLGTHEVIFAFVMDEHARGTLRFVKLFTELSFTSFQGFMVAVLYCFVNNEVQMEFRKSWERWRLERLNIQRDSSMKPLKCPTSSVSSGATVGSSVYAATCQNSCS
Nature of the experiment: Competitive binding of peptide to the GLP-1 receptor in RINm5F cell plasma membranes (125I GLP-1). Particulars: read-out: GLP1 RIN IC50. The protocol:
Flasks of RINm5F cells were washed with PBS, scraped in 20 mM Hepes-1 mM EDTA-250 mM sucrose buffer containing protease inhibitors (HES) and homogenized in a dounce homogenizer followed by repeated resuspension through a 23 gauge needle. Unbroken cells and nuclei were removed by centrifugation at 500×g for 5 minutes. The pellet was resuspended in HES buffer using a 23 gauge needle and the centrifugation was repeated. The supernatants from the two spins were combined and centrifuged at 40,000×g for 20 min. The resulting plasma membrane pellet was resuspended in HES buffer using a 23 gauge needle followed by a 25 gauge needle. Membranes were stored at −80° C. until use.
Competitive binding of some polypeptides of the invention to RINm5F cell plasma membranes was measured as follows. Ninety-six-well GF/C filtration plates (Millipore, Bedford, Mass.) were blocked with 0.3% PEI for at least one hour and washed twice with binding buffer consisting of 20 mM Tris, 2 mM EDTA, pH 7.5, 1 mg/ml BSA, and 1 mg/ml bacitracin. […] The plates were dried, scintillant was added to each well, and cpm per well determined using a Wallac Microbeta counter.

In a further experiment the target is T2, glucagon receptor (Rattus norvegicus, UniProt P30082).
T2 construct: glucagon receptor present in the plasma membranes isolated from rat liver; from tissue; host or cells: rat liver plasma membranes
Nature of the experiment: Competitive binding of peptide to the glucagon receptor in rat liver plasma membranes (125I glucagon). On the procedure: The wet weight of the livers was determined and the tissue minced in 5 volumes of ice cold TES buffer and a slurry prepared using a polytron. All buffers and spins were kept at 4° C. The slurry was further homogenized using three strokes of a handheld dounce homogenizer. The homogenate was passed through several layers of cheesecloth and spun at 25,000×g for 10 minutes. Pellets were homogenized in 22.1 ml TES buffer using 10 strokes of a handheld dounce homogenizer. Twenty-seven point nine milliliters of 2.4 M sucrose in TE was added and mixed well. The homogenate was distributed among several tubes, and each tube was overlaid with 7 ml of TES buffer. The tubes were spun at 120,000×g for 60 minutes. The plasma membranes were removed from the interface that formed during the spin, diluted in TES and concentrated using a 15 minute spin at 200,000×g. The resulting pellet was again homogenized in 9.8 ml TES buffer, combined with 10.3 ml 2.4M sucrose, overlaid with 7 ml TES, and centrifuged at 180,000×g for 30 min. […] The final pellet was resuspended in TES. Plasma membranes were stored at −80° C. until ready for use.
Competitive binding of some polypeptides of the invention to rat liver plasma membranes was measured as follows. Ninety-six-well GF/C filtration plates (Millipore, Bedford, Mass.) were blocked with 0.1% PEI for at least one hour and washed twice with binding buffer consisting of 20 mM Tris, 2 mM EDTA, pH 7.5, 1 mg/ml BSA, and 1 mg/ml bacitracin. […] The plates were dried, scintillant was added to each well, and cpm per well determined using a Wallac Microbeta counter.

The test system of a further experiment is rat hepatocytes. Nature of the experiment: Glucose release from rat hepatocytes (inhibition of glucagon mediated glucose production). Particulars: 1 nM glucagon, 100 nM peptide, 3 trials. Type of experiment: cell-based. The protocol: Hepatocytes were isolated according to a modified procedure of Berry and Friend (J. Cell. Biol. 43:506, 1969). A fed male Wistar rat was anesthetized with sodium pentobarbital (55 mg/kg, i.p.). The rat was placed on its back on the tray of the liver perfusion apparatus (37° C.), and its limbs were secured with laboratory tape. The ventrical surface was cleaned with 70% alcohol, and the abdominal cavity was opened with scissors to expose the liver, portal vein, hepatic artery and the posterior vena cava. Ligatures were placed loosely around the three vessels. A cannula was inserted into the portal vein and was secured with the ligature. […] An aliquot of cells was diluted with buffer, stained with 0.4% Trypan Blue and counted. […]
Rat hepatocytes were added into a flat bottom 96 well plate (2×10^5/100 μl/well) and pre-incubated in a 37° C. incubator with constant shaking and under 95% O2/5% CO2 flow for 10 minutes. […] The resulting supernatant was analyzed for glucose with hexokinase and glucose-6-phosphate dehydrogenase (Methods of Enzymatic Analysis, H. U. Bermeyer, Ed., Academic Press) and the A340 read on a fMAX plate reader (Molecular Devices, Sunnyvale, Calif.).
Glucose output was calculated after subtracting the amount of glucose produced in the unstimulated hepatocytes from each data point and the percent inhibition was calculated.

The target of experiment [2] is T1, GLP-1 receptor. Nature of the experiment: Peptide signaling through GLP-1 receptor, cAMP scintillation proximity assay in RINm5F cells. To be noted: for GLP1 Relative Potency: EC50 of native GLP-1 (7-36) divided by EC50 of polypeptide x 100, cAMP in RINm5F cells. Type of experiment: cell-based. The protocol:
The media was removed and the cells were washed twice with PBS. […] For assay of peptides conjugated with fatty acid, the BSA was omitted from the incubation buffer. The incubation buffer was removed, and the cells were lysed in the lysis reagent provided with the cAMP Scintillation Proximity Assay (SPA) direct screening assay system (Amersham Pharmacia Biotech Inc, Piscataway, N.J.). The amount of cAMP (in pmol) present in the lysates was determined following instructions provided with this kit.
The amount of cAMP (in pmol) produced at each concentration of peptide was plotted and analyzed by nonlinear regression using Prizm software to determine the EC50 for each peptide.

Experiment [3] relates to glucagon-mediated elevation in blood glucose. Nature of the experiment: Glucagon-stimulated glucose production in fed Wistar rats. Type of experiment: in vivo, rat. Particulars: iv, 0.3 nmol/kg glucagon plus 1 nmol/kg peptide.
Description: The anesthesia was withdrawn and the conscious rats were tail-bled again after 10, 20 and 30 min.
Glucose inhibition was determined by analyzing the area under the glucose curve after subtracting the basal glucose level (dAUC).
The nature of experiment [4]: Intraperitoneal glucose tolerance testing (IPGTT) in rats or mice. To be noted: ipGTT in mice 3 hours post dosing with 100 μg/kg peptide. Type of experiment: in vivo. On the procedure:
Blood glucose levels during intraperitoneal glucose tolerance testing in rats or mice by some polypeptides of the invention were measured as follows. The in vivo activity of the polypeptides of the invention when administered subcutaneously was examined in rats or mice. Rats or mice fasted overnight were given a subcutaneous injection of control or peptide (100 μg/kg). Basal blood glucose was measured prior to administration of peptides or three or 17 hours after administration of derivatized peptides, and the rats or mice were given 2 g/kg of glucose intraperitoneally. Blood glucose was measured again after 15, 30 and 60 minutes in rats or 30 and 60 minutes in mice.

Experiment [5] deals with glucagon-mediated elevation in blood glucose. Nature of the experiment: Glucagon-stimulated glucose production in fed Balb/C mice. Type of experiment: in vivo.
Description: The change in glucose over the 15 minutes was calculated for each mouse.
In experiment [6] the test system is dispersed rat islet cells. As to the kind of experiment: Insulin secretion from dispersed rat islet cells. Type of experiment: cell-based. Particulars: 50 nM peptide, fold over control. The protocol:
Insulin secretion of dispersed rat islets mediated by a number of peptides of the invention was measured as follows. Islets of Langerhans were isolated from SD rats (200-250 g) through a digestion procedure using collagenase. Dispersed islet cells were prepared through treatment with trypsin, seeded into 96 V-bottom plates and pelleted. Cells were cultured overnight in media. Media was aspirated and the cells were pre-incubated with Krebs-Ringer-HEPES buffer containing 3 mM glucose for 30 minutes at 37° C. Pre-incubation buffer was removed and cells were stimulated with Krebs-Ringer-HEPES buffer containing the appropriate glucose concentration (e.g., 8 mM), with and without peptides for an appropriate time at 37° C. […] A portion of supernatant was removed and its insulin content was measured by SPA. The results are expressed as fold over control (FOC). At a concentration of 50 nM, the polypeptide having an amino acid sequence shown in SEQ ID NO:27 increased insulin secretion from dispersed islet cells approximately 3-fold.

Where no end group is shown, it is not given here.

T2 sequence (P30082 27-485): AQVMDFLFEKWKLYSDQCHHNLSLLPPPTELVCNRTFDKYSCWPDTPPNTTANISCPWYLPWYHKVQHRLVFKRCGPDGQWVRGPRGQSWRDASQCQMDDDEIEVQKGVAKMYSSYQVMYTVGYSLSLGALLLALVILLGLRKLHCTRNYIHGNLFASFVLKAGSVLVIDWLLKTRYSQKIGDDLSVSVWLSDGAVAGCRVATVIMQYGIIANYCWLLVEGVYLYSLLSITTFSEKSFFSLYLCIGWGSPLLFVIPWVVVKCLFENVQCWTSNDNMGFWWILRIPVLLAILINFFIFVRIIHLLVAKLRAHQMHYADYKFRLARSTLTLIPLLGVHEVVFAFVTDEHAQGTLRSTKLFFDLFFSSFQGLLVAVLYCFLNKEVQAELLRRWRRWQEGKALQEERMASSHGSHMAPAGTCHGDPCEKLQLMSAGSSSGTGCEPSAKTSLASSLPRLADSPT

For `CC[C@H](C)[C@H](NC(=O)[C@H](Cc1ccccc1)NC(=O)[C@H](CCC(=O)O)NC(=O)[C@H](CCCCN)NC(=O)[C@H](C)NC(=O)[C@H](C)NC(=O)[C@H](CCC(N)=O)NC(=O)CNC(=O)[C@H](CCC(=O)O)NC(=O)[C@H](CC(C)C)NC(=O)[C@H](Cc1ccc(O)cc1)NC(=O)[C@H](CO)NC(=O)[C@H](CO)NC(=O)[C@@H](NC(=O)[C@H](CC(=O)O)NC(=O)[C@H](CO)NC(=O)[C@@H](NC(=O)[C@H](Cc1ccccc1)NC(=O)[C@@H](NC(=O)CNC(=O)[C@H](CCC(=O)O)NC(=O)[C@H](C)NC(=O)[C@@H](N)Cc1c[nH]cn1)[C@@H](C)O)[C@@H](C)O)C(C)C)C(=O)N[C@@H](C)C(=O)N[C@@H](Cc1c[nH]c2ccccc12)C(=O)N[C@@H](CC(C)C)C(=O)N[C@H](C(=O)N[C@@H](CCCCN)C(=O)NCC(=O)N[C@@H](CCCNC(=N)N)C(N)=O)C(C)C` [GLP-1, reference compound], the “Increase of insulin secretion from perfused islets” value with perfused rat islets is on record as “approximately 2 fold”.
With “HSQGTFTSDYAKYLDARRAKEFIAWLVKGR-NH2 [G27]”, the IC50 at GLP-1 receptor [1] turned out to be 2.2 nM; on glucagon receptor it was 69.3 nM. The “Increase of insulin secretion from perfused islets” value with perfused rat islets is reported as “approximately 2 fold”. Moreover, the “Inhibition of glucagon mediated glucose production” value in the experiment with rat hepatocytes came to 47%. In addition, the “GLP1 Relative Potency” value at GLP-1 receptor [2] was 13.4%. For the same compound, on GLP-1 receptor [2] (RIN-m5F, read-out: % GLP1 max), the Emax is 98.1%. In addition, the “Inhibition of glucagon-mediated elevation in blood glucose (dAUC)” value in experiment [3] is given as 63%.
For “HSQGTFTSDYARYLDARRAREFIKWLVRGRC(43kD) (HSQGTFTSDYARYLDARRAREFIKWLVRGRC(PEG 43kD); listed as Homo sapiens) [G4185, 43kD PEG linked to the cysteine residue]”, in the experiment with GLP-1 receptor [2], the “GLP1 Relative Potency” value came to 0.7%. For the same compound, in the experiment with GLP-1 receptor [2] (maximal cAMP activity relative to native GLP-1 (7-36), RINm5F cells), the “% GLP1 max” value was found to be 98.3%. The “In vivo Decrease IpGTT AUC” value in [4] came to 36%. Moreover, the “% Inhibition” value in [5] (Balb/C mice, 10 μg/kg glucagon, 100 μg/kg peptide sc 17 h before) came out at 31%. Further, the “Glucose 15 min” value in [5] (Balb/C mice, 15 min after 10 μg/kg iv glucagon) is 150 mg/dL. For the same compound, the “Glucose Delta (15 − 0)” value in experiment [5] (Balb/C mice, change over 15 min after glucagon) stood at 75 mg/dL. Moreover, in [5] (Balb/C mice, delta minus vehicle group delta), the “Glucose -Vehicle delta” value stood at 59 mg/dL. Besides, the “% of 10 μg/kg Glucagon” value in [5] (Balb/C mice, glucose change relative to glucagon alone) is 69%. In addition, the “Glucose 0 min” value in [5] (Balb/C mice, just prior to 10 μg/kg iv glucagon, peptide 100 μg/kg sc 17 h before) was 75 mg/dL. Besides, the “In vivo % Decrease glucagon stimulated blood glucose” value in experiment [5] (glucagon challenge in mice 17 hours post dosing with 100 μg/kg peptide) is on record as 31%. In addition, in experiment [6], the “Increase of insulin secretion from dispersed islet cells” value is “approximately 3 fold”.

These data come from patent US7488716B2 (priority 2001, dated 2009).
